Several values for one entry are separate records, joined by “and”; a condition that tells them apart may be missing. Identical values can stand only once. Like-named read-outs stand apart in the source and are kept apart here. Each block holds one compound with its values, some of them ahead of it.
How the values were obtained:
HEK293T cells = experiment: Growth inhibition, metabolic activity (CellTiter-Glo); format: cell-based; conditions: six days, Supplemental Fig. 5E
Method: We also tested three analogues to compound B and one analogue to compound C. […] To assess the effects of compound A-E in a cell line with very low levels of Notch signalling we repeated the growth inhibition assay in HEK293T cells.
(§1) Compounds were spotted on white 384-well tissue culture plates (Greiner, cat #781080) using an Echo 525 Acoustic liquid handler (Labcyte). Cells were grown to 80% confluence, detached if required, counted and 20 µl containing 2000–4000 cells per well was then seeded in each well and cultivated for three (4,000 cells seeded) and six days (2,000 cells seeded). […] Luciferase activity (reading out metabolic activity) was determined using the CellTiter-Glo 2.0 kit (CTG, Promega, cat #G9242) following the manufacturer’s instructions and luminescence was measured on a SpectraMaxi3 or Varioscan plate reader (Molecular Devices, Thermofisher).

DHODH = biological target: T1, DHODH (Homo sapiens, UniProt Q02127); experiment: DHODH enzyme activity assay (Resorufin fluorescence, Reaction Biology); format: biochemical
T1 construct: purchased Reaction Biology (contract assay)
T1 sequence (Q02127 whole entry): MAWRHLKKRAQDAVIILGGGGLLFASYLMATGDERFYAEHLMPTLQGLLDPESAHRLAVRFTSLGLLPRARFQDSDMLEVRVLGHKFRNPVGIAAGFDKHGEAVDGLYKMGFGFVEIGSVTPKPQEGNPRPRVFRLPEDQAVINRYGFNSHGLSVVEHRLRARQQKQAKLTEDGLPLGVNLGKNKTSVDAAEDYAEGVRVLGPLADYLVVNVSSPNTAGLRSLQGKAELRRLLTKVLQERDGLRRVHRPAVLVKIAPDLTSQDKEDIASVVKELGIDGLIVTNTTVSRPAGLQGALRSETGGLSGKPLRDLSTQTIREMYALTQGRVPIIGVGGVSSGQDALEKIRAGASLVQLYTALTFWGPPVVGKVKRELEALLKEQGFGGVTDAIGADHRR
Method: DHODH enzyme activity was determined via fluorescence-based quantification (Resorufin fluorescence as endpoint measurement) at Reaction Biology. Reference compound BAY2402234 was measured in singletons in two biological replicates and compounds were measured in technical replicates within the indicated dose-ranges. Values were normalized to DMSO control and dose–response curves were fitted using the log(inhibitor) versus response – Variable slope (model: Y = Bottom + (Top–Bottom)/(1 + 10^((LogIC50-X)*HillSlope)) equation.

RPMI-8402 cells = experiment: Growth inhibition, metabolic activity (CellTiter-Glo); format: cell-based; conditions: Homo sapiens; RPMI-8402, six days; read-out: approximated IC50, growth (metabolic activity)
From the text: (§2) We next investigated whether compounds A-E affected growth and viability of cell lines from T-cell acute lymphoblastic leukaemia (T-ALL) and breast cancer, two tumour types in which elevated Notch signalling has been implicated in tumorigenesis. […] When testing analogues of compounds B and C, five of the seven B analogues and one of the two C analogues produced dose–response curves and IC50s, which however were higher compared to the original hits (Supplemental Fig. 5A; IC50s are presented in Supplemental Table 6).
as §1

TALL-1 cells = experiment: as above; format: cell-based; conditions: Homo sapiens; TALL-1, six days; read-out: approximated IC50, growth (metabolic activity)
From the text: as §2, §1

JURKAT cells = experiment: as above; format: cell-based; conditions: Homo sapiens, six days, read-out: approximated IC50, growth (metabolic activity)
From the text: as §2, §1

MDA-MB-231 cells = experiment: Immunocytochemistry of NOTCH1, nuclei and giant cell count; format: cell-based; set-up: Average Size nuclei / AVG Average Size nuclei: unit not given here; conditions: for fraction of cells with large nuclei / overall level of NOTCH1 (ICC) / AVG Giant cells/ total nucl (%) / AVG Average Size nuclei / Average Size nuclei / Count (nuclei per field) / Giant cells /field / Giant cells/ total nucl (%): MDA-MB-231, 2 µM; for fraction of cells with large nuclei / overall level of NOTCH1 (ICC): 24 h; for fraction of cells with large nuclei: compared to DMSO, Fig. 8D; for overall level of NOTCH1 (ICC): Fig. 8A; for Average Size nuclei / Count (nuclei per field) / Giant cells /field / Giant cells/ total nucl (%): single images; for cell morphology: overview in comparison to compound C, Supplemental Fig. 9
Method: 20,000 MDA-MB-231 cells were seeded on cover-slides (BD Bioscience), allowed to attach and treated with 2 µM compound for 24 h and 72 h upon reaching 80% confluence. For quantification of NOTCH1 signals and to monitor morphological changes immunocytochemistry staining to localize NOTCH1 was carried out as described above for C2C12 cells. Cellular morphology was visualized with Phalloidin (Thermofisher, cat # A22287), used at 1:2000 dilution and a NOTCH1 antibody used at 1:100 dilution (Cell signalling, cat #D6F11). Images were recorded using a Zeiss LSM 700 laser scanning microscope with a 40 × objective. Identical channel configuration and detector gain settings were used for quantification of fluorescence signals and a minimum of four images were recorded per condition. Secondary antibody control background signals were averaged and subtracted from each image and the same brightness and contrast adjustments were applied to all images before conducting histogram-based quantification of NOTCH1 signals. A 10 × objective was used for assessing morphological changes and a minimum of four and three images at 24 h and 72 h, respectively were recorded for quantification of nuclei count, size and number of giant cells. Images were processed using Fiji (ImageJ) software and objects were separated from background using Otsu thresholding until all nuclei were detectable. Nuclei objects were filled and nuclei particles were measured using size exclusion and circularity filter settings, 10-infinity (size) and 0,1–0,5 (circularity). Overlay images of nuclear stain and Phalloidin were used to manually count and annotate giant cells using Fiji’s cell counter.

MDA-MB-468 cells = experiment: Growth inhibition, metabolic activity (CellTiter-Glo); format: cell-based; conditions: Homo sapiens; MDA-MB-468, six days; read-out: approximated IC50, metabolic activity
From the text: as §2, §1

[1] = dose-range [M] 4.00E-05- 2.03E-09, 3 steps
[2] = dose-range [M] 4.00E-05- 2.03E-09, 3 steps, read-out: IC50
[3] = Fig. 7B, read-out: IC50s DHODH assay: IC50

Structure (SMILES): NC(=O)c1c(NC(=O)NCc2cccnc2)sc2c1CCC2 [compound D]
growth inhibitory effect (HEK293T cells): did not exert a growth inhibitory effect
IC50s DHODH assay: Hill-Slope (DHODH; Fig. 7B): -5.0
Hill-slope (DHODH; [1]): -5.0
IC50 (DHODH; [2]): 9.6e-06 M

Structure (SMILES): CC(C)(C(=O)NCC(F)(F)C(F)(F)F)C(=O)N[C@@H]1C(=O)Nc2ccccc2-c2ccccc21 [RO4929097, reference compound]
fraction of cells with large nuclei (MDA-MB-231 cells): smaller increase
overall level of NOTCH1 (ICC) (MDA-MB-231 cells): trend towards reduced levels
AVG Giant cells/ total nucl (%) (MDA-MB-231 cells; 24h treatment, DMSO 1.4): 1.7%
AVG Average Size nuclei (MDA-MB-231 cells; 24h treatment, DMSO 184.3): 170.6
Average Size nuclei (MDA-MB-231 cells; 24h treatment, listed as GSI): 168.5 and 151.9 and 180.3 and 181.9
Count (nuclei per field) (MDA-MB-231 cells; 24h treatment, listed as GSI): 1431.0 and 1167.0 and 1371.0 and 1390.0
Giant cells /field (MDA-MB-231 cells; 24h treatment, listed as GSI): 23.0 and 26.0 and 17.0 and 24.0
Giant cells/ total nucl (%) (MDA-MB-231 cells; 24h treatment, listed as GSI): 1.6% and 2.2% and 1.2% and 1.7%
AVG Giant cells/ total nucl (%) (MDA-MB-231 cells; 72h treatment, DMSO 0.7): 1.2%
AVG Average Size nuclei (MDA-MB-231 cells; 72h treatment, DMSO 184.1): 205.4
Average Size nuclei (MDA-MB-231 cells; 72h treatment, listed as GSI): 177.5 and 237.7 and 201.1
Count (nuclei per field) (MDA-MB-231 cells; 72h treatment, listed as GSI): 508.0 and 335.0 and 447.0
Giant cells /field (MDA-MB-231 cells; 72h treatment, listed as GSI): 4.0 and 6.0 and 5.0
Giant cells/ total nucl (%) (MDA-MB-231 cells; 72h treatment, listed as GSI): 0.8% and 1.8% and 1.1%
cell morphology (MDA-MB-231 cells): moderate effect

Structure (SMILES): Cc1ccc2[nH]c3c(c2c1)CCOC31CCN(Cc2ccccc2-c2ccccc2)CC1 [compound B]
IC50s DHODH assay: Hill-Slope (DHODH; Fig. 7B): -5.7
IC50 (DHODH; [3]): 2.2e-06 M
Hill-slope (DHODH; [1]): -5.7
IC50 (DHODH; [2]): 2.2e-06 M
IC50 (RPMI-8402 cells): 500 nM
IC50 (MDA-MB-468 cells): 1100 nM
IC50 (TALL-1 cells): 6700 nM
IC50 (JURKAT cells): 300 nM

The next lines start with results.

IC50 (JURKAT cells): 1700 nM
Structure (SMILES): CC(C)(C)c1ccc(Oc2ccc(N)cn2)cc1 [CB-103, reference compound]
IC50 (RPMI-8402 cells): 900 nM
IC50 (TALL-1 cells): 300 nM

IC50s DHODH assay: Hill-Slope (DHODH; Fig. 7B): -4.5
IC50 (DHODH; [3]): 2.86e-05 M
Hill-slope (DHODH; [1]): -4.5
IC50 (DHODH; [2]): 2.9e-05 M
Structure (SMILES): CCc1c(C(=O)N(C)Cc2cnn(C(C)C)c2)[nH]c2ccccc12 [compound A]
growth inhibitory effect (HEK293T cells): did not exert a growth inhibitory effect

IC50s DHODH assay: Hill-Slope (DHODH; Fig. 7B): -4.4
Hill-slope (DHODH; [1]): -4.4
IC50 (DHODH; [2]): 3.7e-05 M
Structure (SMILES): Cc1nn(-c2nc3ccccc3s2)c(O)c1C1OC(=O)c2ccccc21 (stereo not shown) [compound E]
growth inhibitory effect (HEK293T cells): did not exert a growth inhibitory effect

IC50s DHODH assay: Hill-Slope (DHODH; Fig. 7B): -15.6
IC50s DHODH assay: IC50 (DHODH; Fig. 7B): indeterminate
IC50 (DHODH; broader dose range, Fig. 7D, read-out: IC50, relative DHODH activity): 1.01e-08 M
Hill-slope (DHODH; [1]): -15.5
LogIC50 (DHODH; [1]): Unstable
DHODH assay (DHODH; overview in comparison to compound C, Supplemental Fig. 9): active
IC50 (MDA-MB-468 cells): 1700 nM
IC50 (JURKAT cells): 4300 nM
Structure (SMILES): COc1cccc(CNc2ccc(N3CCCCC3)cc2)c1OCc1cccs1 [compound C]
fraction of cells with large nuclei (MDA-MB-231 cells): increased fraction
overall level of NOTCH1 (ICC) (MDA-MB-231 cells): not affected
AVG Giant cells/ total nucl (%) (MDA-MB-231 cells; 24h treatment, DMSO 1.4): 2.4%
AVG Average Size nuclei (MDA-MB-231 cells; 24h treatment, DMSO 184.3): 211.1
Average Size nuclei (MDA-MB-231 cells; 24h treatment): 215.8 and 220.5 and 221.4 and 186.7
Count (nuclei per field) (MDA-MB-231 cells; 24h treatment): 1118.0 and 1274.0 and 861.0 and 1213.0
Giant cells /field (MDA-MB-231 cells; 24h treatment): 26.0 and 28.0 and 22.0 and 30.0
Giant cells/ total nucl (%) (MDA-MB-231 cells; 24h treatment): 2.3% and 2.2% and 2.6% and 2.5%
AVG Giant cells/ total nucl (%) (MDA-MB-231 cells; 72h treatment, DMSO 0.7): 3.8%
AVG Average Size nuclei (MDA-MB-231 cells; 72h treatment, DMSO 184.1): 267.6
Average Size nuclei (MDA-MB-231 cells; 72h treatment): 254.0 and 270.2 and 244.9 and 301.2
Count (nuclei per field) (MDA-MB-231 cells; 72h treatment): 251.0 and 246.0 and 215.0 and 208.0
Giant cells /field (MDA-MB-231 cells; 72h treatment): 9.0 and 8.0 and 10.0
Giant cells/ total nucl (%) (MDA-MB-231 cells; 72h treatment): 3.6% and 3.3% and 3.7% and 4.8%
cell morphology (MDA-MB-231 cells): strongest effect
DHODH enzyme activity (in words) (DHODH; Fig. 7B): appeared to reduce DHODH enzyme activity across the dose response range
IC50 (RPMI-8402 cells): 600 nM

— PMC13242511, “Disrupting Notch signalling by a small molecule inhibiting dihydroorotate dehydrogenase activity” (Scientific Reports, 2026)
